Source: patent US11059808B2, “Substituted phenylpyrrolecarboxamides with therapeutic activity in HIV” (New York Blood Center, Inc., priority 2014, dated 2021)

Experiments:
Format in all cases: cell-based
[1] = Cytotoxicity in TZM-bl cells (XTT); conditions: human, XTT, 3 days
Method: (§1) The cytotoxicity of test compounds in TZM-bl cells was also measured by the XTT method described previously^7. […] The soluble intracellular formazan was quantitated colorimetrically at 450 nm 4 h later. The percent of cytotoxicity and the CC50 values were calculated as above. (See Table 4)

[2] = tested on: HIV-1 pseudovirus pseudotyped with HXB2 Env; experiment: microbe, parasite or virus in culture; conditions: single cycle assay, TZM-bl cells infected with HIV-1 pseudovirus pseudotyped with HXB2 Env;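 further: endpoint is IC50 for inhibition of pseudovirus infection of TZM-bl cells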
TZM-bl cells = experiment: Cytotoxicity in TZM-bl cells (XTT); conditions: XTT, 3 days
Method: as §1

Cc1nc(C(CCN)NC(=O)c2ccc(-c3ccc(Cl)c(F)c3)[nH]2)sc1CO (single isomer, unassigned) [Compound 86]
CC50 at 3 days [1]: 22.9 ± 0.6 µM

Cc1nc(C(CCN)NC(=O)c2ccc(-c3ccc(Cl)cc3)[nH]2)sc1CO (single isomer, unassigned) [Compound 88]
IC50 [2]: 18.7 ± 0.7 µM | CC50 at 3 days [1]: 41 ± 1.1 µM

Cc1nc(C(CN)NC(=O)c2cnc(-c3ccc(Cl)cc3)[nH]2)sc1CO (single isomer, unassigned) [Compound 93]
CC50 at 3 days [1]: > 51 µM

Cc1nc(C(CN)NC(=O)c2ncc(-c3ccc(Cl)cc3)[nH]2)sc1CO (single isomer, unassigned) [Compound 95]
CC50 at 3 days [1]: > 51 µM

Cc1cc(C(=O)NC(CN)c2nc(C)c(CO)s2)[nH]c1-c1ccc(Cl)cc1 (single isomer, unassigned) [Compound 97]
CC50 at 3 days [1]: 5.2 ± 0.3 µM

NCC(NC(=O)c1ccc(-c2ccc(Cl)c(F)c2)[nH]1)c1ncc(CO)s1 (single isomer, unassigned) [Compound 101]
IC50 [2]: 0.57 ± 0.01 µM | CC50 at 3 days [1]: 30.8 ± 1.9 µM

NCC(NC(=O)c1ccc(-c2ccc(Cl)cc2)[nH]1)c1ncc(CO)s1 (single isomer, unassigned) [Compound 104]
IC50 [2]: 1.3 ± 0.1 µM | CC50 at 3 days [1]: 38 ± 1.5 µM

NCC(NC(=O)c1ccc(-c2cc(F)c(Cl)c(F)c2)[nH]1)c1ncc(CO)s1 (single isomer, unassigned) [Compound 119]
CC50 at 3 days [1]: 18 ± 0.5 µM

CC(C)(N)C(NC(=O)c1ccc(-c2ccc(Cl)c(F)c2)[nH]1)c1ncc(CO)s1 (single isomer, unassigned) [Compound 124]
IC50 [2]: 0.46 ± 0.01 µM | CC50 (TZM-bl cells): 16.3 ± 0.6 µM

Cc1ccc(-c2ccc(C(=O)NC(c3ncc(CO)s3)C(C)(C)N)[nH]2)cc1F (single isomer, unassigned) [Compound 126]
IC50 [2]: 0.54 ± 0.01 µM | CC50 (TZM-bl cells): 18.1 ± 0.7 µM

CNCC(NC(=O)c1ccc(-c2cc(F)c(Cl)c(F)c2)[nH]1)c1ncc(CO)s1 (single isomer, unassigned) [Compound 127]
IC50 ([2]; Human immunodeficiency virus 1, HXB2, TZM-bl): 0.42 ± 0.2 µM | CC50 (TZM-bl cells): 13.9 ± 0.7 µM

CNCC(NC(=O)c1ccc(-c2cc(F)c(Cl)c(F)c2)[nH]1)c1ncc(CO)s1 (single isomer, unassigned) [Compound 128]
IC50 [2]: 0.36 ± 0.04 µM | CC50 (TZM-bl cells): 10.4 ± 0.8 µM

COc1ccc(-c2ccc(C(=O)NC(CN)c3ncc(CO)s3)[nH]2)cc1OC (single isomer, unassigned) [Compound 130]
IC50 [2]: > 74.5 µM | CC50 (TZM-bl cells): > 74.5 µM

O=C(NC(c1ccccc1)c1ccc[nH]1)c1ccc(-c2ccc(Cl)cc2)[nH]1 (stereo not shown) [Compound 1]
CC50 at 3 days [1]: > 53 µM

Nc1nc(CNC(=O)c2ccc(-c3ccc(Cl)cc3)[nH]2)n[nH]1 [Compound 2]
CC50 at 3 days [1]: > 63 µM

N=C(N)Nc1ccc(CC(NC(=O)c2ccc(-c3ccc(Cl)cc3)[nH]2)C(=O)N2CCOCC2)cc1 (stereo not shown) [Compound 3]
CC50 at 3 days [1]: > 36 µM

N=C(N)NCCCC(NC(=O)c1ccc(-c2ccc(Cl)cc2)[nH]1)C(=O)NCCO (stereo not shown) [Compound 4]
CC50 at 3 days [1]: > 44 µM

N=C(N)NCCCC(NC(=O)c1ccc(-c2ccccc2)[nH]1)C(=O)NCCO (stereo not shown) [Compound 5]
CC50 at 3 days [1]: > 47 µM

CS(=O)(=O)NCCNC(=O)C(CCCNC(=N)N)NC(=O)c1ccc(-c2ccc(Cl)cc2)[nH]1 (stereo not shown) [Compound 6]
CC50 at 3 days [1]: > 37 µM

CS(=O)(=O)NCCNC(=O)C(CCCNC(=N)N)NC(=O)c1ccc(-c2ccccc2)[nH]1 (stereo not shown) [Compound 7]
CC50 at 3 days [1]: > 43 µM

CN1CCN(NC(=O)C(CCCNC(=N)N)NC(=O)c2ccc(-c3ccc(Cl)cc3)[nH]2)CC1 (stereo not shown) [Compound 8]
CC50 at 3 days [1]: > 42 µM

N=C(N)NCCCC(NC(=O)c1ccc(-c2ccc(Cl)cc2)[nH]1)C(=O)NN1CCOCC1 (stereo not shown) [Compound 9]
CC50 at 3 days [1]: > 40 µM

N=C(N)NCCCC(NC(=O)c1ccc(-c2ccccc2)[nH]1)C(=O)NN1CCOCC1 (stereo not shown) [Compound 10]
CC50 at 3 days [1]: > 43 µM

Cc1n[nH]c(C)c1CNC(=O)c1ccc(-c2ccc(Cl)cc2)[nH]1 [Compound 11]
CC50 at 3 days [1]: ~60 µM

Cc1nccn1Cc1ccc(CNC(=O)c2ccc(-c3ccc(Cl)cc3)[nH]2)o1 [Compound 12]
CC50 at 3 days [1]: 22 ± 0.4 µM

CCN(CC)Cc1ccc(OC)c(CNC(=O)c2ccc(-c3ccc(Cl)cc3)[nH]2)c1 [Compound 13]
CC50 at 3 days [1]: 14.2 ± 1 µM

NS(=O)(=O)c1ccc(CCNC(=O)c2ccc(-c3ccc(Cl)cc3)[nH]2)cc1 [Compound 14]
CC50 at 3 days [1]: > 50 µM

Cc1nc(C(NC(=O)c2ccc(-c3ccc(Cl)cc3)[nH]2)C2CCCCN2)sc1CCCO (stereo not shown) [Compound 32]
CC50 at 3 days [1]: 13.7 ± 1 µM

NCCNC(=O)c1ccc(-c2ccc(Cl)c(F)c2)[nH]1 [Compound 71]
CC50 at 3 days [1]: 19.4 ± 0.9 µM
